# Reference: BindingDB's records for doi:10.1016/j.bmc.2016.06.011 (Florida A&M University, 2016)
# pKi: −log10 of the molar value.
# What was measured:
# [1] = biological target: 5-hydroxytryptamine receptor 2A (Homo sapiens, UniProt P28223); assay: Displacement of [3H]Ketanserin from human recombinant 5HT2A receptor incubated for […] by microbeta scintillation counting method
# [2] = biological target: T1, 5-hydroxytryptamine receptor 2C (Homo sapiens, UniProt P28335); assay: Displacement of [3H]Mesulergine from human recombinant 5HT2C receptor incubated for […] by microbeta scintillation counting method
# T1 sequence (P28335 whole entry): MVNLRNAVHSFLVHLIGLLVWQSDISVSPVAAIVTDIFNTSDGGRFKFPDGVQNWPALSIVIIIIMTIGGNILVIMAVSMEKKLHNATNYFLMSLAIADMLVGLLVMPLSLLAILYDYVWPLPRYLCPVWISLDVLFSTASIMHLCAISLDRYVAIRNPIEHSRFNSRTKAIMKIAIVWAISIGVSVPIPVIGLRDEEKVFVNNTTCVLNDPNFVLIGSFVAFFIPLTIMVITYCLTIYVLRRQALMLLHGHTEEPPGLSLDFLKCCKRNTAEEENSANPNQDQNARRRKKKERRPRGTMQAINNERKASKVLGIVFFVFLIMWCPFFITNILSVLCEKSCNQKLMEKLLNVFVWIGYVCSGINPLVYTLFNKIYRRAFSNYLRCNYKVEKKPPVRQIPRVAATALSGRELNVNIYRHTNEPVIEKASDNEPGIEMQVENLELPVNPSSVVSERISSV
# D(4) dopamine receptor = biological target: T2, D(4) dopamine receptor (Homo sapiens, UniProt P21917); assay: Displacement of [3H]N-methylspiperone from human recombinant dopamine D4 receptor incubated for […] by microbeta scintillation counting method
# T2 sequence (P21917 whole entry): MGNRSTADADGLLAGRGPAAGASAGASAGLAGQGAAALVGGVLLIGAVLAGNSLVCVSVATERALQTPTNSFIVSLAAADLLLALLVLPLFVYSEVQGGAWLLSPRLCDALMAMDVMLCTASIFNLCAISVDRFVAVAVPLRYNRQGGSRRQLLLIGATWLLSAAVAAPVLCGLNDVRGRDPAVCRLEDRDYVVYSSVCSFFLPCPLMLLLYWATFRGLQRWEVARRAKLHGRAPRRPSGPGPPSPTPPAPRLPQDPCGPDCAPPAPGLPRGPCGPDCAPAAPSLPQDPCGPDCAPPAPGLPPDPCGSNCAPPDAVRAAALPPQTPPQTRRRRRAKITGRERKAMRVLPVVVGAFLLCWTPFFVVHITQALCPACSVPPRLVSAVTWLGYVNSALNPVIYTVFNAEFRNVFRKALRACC
# 5-hydroxytryptamine receptor 2A, sequence (P28223 whole entry): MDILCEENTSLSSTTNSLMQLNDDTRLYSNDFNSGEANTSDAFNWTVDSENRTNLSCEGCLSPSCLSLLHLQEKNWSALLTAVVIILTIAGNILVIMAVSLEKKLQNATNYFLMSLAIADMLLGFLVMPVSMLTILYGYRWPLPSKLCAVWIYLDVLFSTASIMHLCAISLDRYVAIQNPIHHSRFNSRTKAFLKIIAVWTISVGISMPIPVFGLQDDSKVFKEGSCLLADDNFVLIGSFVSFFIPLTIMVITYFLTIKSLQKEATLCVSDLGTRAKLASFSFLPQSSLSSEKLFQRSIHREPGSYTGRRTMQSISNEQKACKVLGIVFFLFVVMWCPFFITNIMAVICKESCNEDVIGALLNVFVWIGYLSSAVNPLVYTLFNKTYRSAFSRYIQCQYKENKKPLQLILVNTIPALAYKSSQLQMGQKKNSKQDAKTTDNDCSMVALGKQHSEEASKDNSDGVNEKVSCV
SMILES,pKi [1],pKi [2],pKi (D(4) dopamine receptor)
OC1(c2ccc(Cl)cc2)CC2CCC(C1)N2CCCCc1nc2ccccc2s1 (centres undefined),< 5.00,5.34,
O=C(CCCCN1CCC(n2c(=O)[nH]c3cc(Cl)ccc32)CC1)c1nc2ccccc2s1,,,5.77
OC1(c2ccc(Cl)cc2)CCN(CCCCc2nc3ccccc3s2)CC1,,,6.85
